According to patent US20180116220A1, “NOVEL TRIAZOLE DERIVATIVES” (BAYER CROPSCIENCE AKTIENGESELLSCHAFT, priority 2015, published 2018):
Values joined by “and” are separate entries in the source; they are usually repeats but may differ in a detail not shown here. Identical values can stand only once. Marks after values point to notes of the source that are not given here.

Experiment: LogP by HPLC on reversed phase columns (EEC directive 79/831 Annex V.A8)
Assay type: physicochemical
Settings: for chromatographic logP: reversed phase HPLC column
Experimental: [table] If more than one LogP value is available within the same method, all the values are given and separated by “+”. […] Lambda-max-values were determined using UV-spectra from 200 nm to 400 nm and the peak values of the chromatographic signals. Measurement of LogP values was performed as outlined above.

[1] = [a] LC-UV, acidic range, 0.1% formic acid in water and acetonitrile as eluent
[2] = [b] LC-UV, neutral range, 0.001 molar ammonium acetate solution in water and acetonitrile as eluent

SMILES	LogP [1]	LogP [2]	chromatographic logP [1]	chromatographic logP [2]
OC(Cn1cncn1)(c1ccc(F)cc1F)C1(Oc2ccccc2)CC1 (racemic) [Example I-11]	3.67^[a];	3.71^[b]		
O=C(c1ccc(F)cc1F)C1(Oc2ccccc2Br)CC1 [IV-6]	4.14	4.19		
Fc1ccc(C2(C3(Oc4ccc(Cl)cc4F)CC3)CO2)c(F)c1 (centres unmarked) [Example V-2]	4.50^[a]; 4.50^[b]	4.50^[a]; 4.50^[b]		
OC(Cn1cncn1)(c1ccc(F)cc1F)C1(Oc2ccc(Br)cc2F)CC1 (racemic) [Example I-09]	3.56^[a];	3.54^[b]		
OC(Cn1cncn1)(c1ccc(F)cc1F)C1(Oc2c(F)cccc2F)CC1 (racemic) [Example I-18]	3.02^[a]			
Fc1ccc(C2(C3(Oc4ccc(F)cc4Cl)CC3)CO2)c(F)c1 (centres unmarked) [Example V-3]	4.45	4.44		
O=C(c1ccc(F)cc1F)C1(Oc2ccccc2F)CC1 [IV-5]	3.73^[a]			
Fc1ccc(C2(C3(Oc4c(F)cccc4F)CC3)CO2)c(F)c1 (centres unmarked) [Example V-18]	4.11^[a]			
Fc1ccc(C2(C3(Oc4c(F)cccc4Cl)CC3)CO2)c(F)c1 (centres unmarked) [Example V-20]	4.49^[a]			
OC(Cn1cncn1)(c1ccc(F)cc1F)C1(Oc2ccc(F)cc2Cl)CC1 (racemic) [Example I-02]	3.47^[a];	3.46^[b]		
OC(Cn1cncn1)(c1ccc(F)cc1F)C1(Oc2cccc(Cl)c2)CC1 (racemic) [Example I-39]	3.55^[a]			
O=C(c1ccc(F)cc1F)C1(Oc2ccc(Br)cc2F)CC1 [IV-11]	4.33	4.36		
C=CCOC(Cn1cncn1)(c1ccc(F)cc1F)C1(Oc2ccc(Cl)cc2)CC1 (racemic) [Example I-33]	4.34^[a]			
Fc1ccc(C2(C3(Oc4ccc(Cl)cc4)CC3)CO2)c(F)c1 (centres unmarked) [Example V-1, 2-[1-(4-chlorophenoxy)cyclopropyl]-2-(2,4-difluorophenyl)oxirane]			4.57	4.58
N#Cc1cc(I)ccc1OC1(C(=O)c2ccc(F)cc2F)CC1 [IV-13]	3.90	3.92		
C[Si](C)(C)COC(Cn1cncn1)(c1ccc(F)cc1F)C1(Oc2ccc(Cl)cc2)CC1 (racemic) [Example I-34]	5.68^[a]			
Fc1ccc(C(Cn2cncn2)(OCC2CC2)C2(Oc3ccc(Cl)cc3)CC2)c(F)c1 (racemic) [Example I-35]	4.71^[a]			
Fc1cc(Cl)ccc1C1(C2(Oc3ccc(Cl)cc3)CC2)CO1 (racemic) [Example V-22]	5.08^[a]			
Fc1ccc(OC2(C3(c4ccc(Cl)cc4F)CO3)CC2)c(F)c1 (centres unmarked) [Example V-17]	4.56^[a]			
Fc1cc(Cl)ccc1OC1(C2(c3ccc(Cl)cc3F)CO2)CC1 (racemic) [Example V-23]	5.00^[a]			
O=C(c1ccc(F)cc1F)C1(Oc2ccc(OC(F)(F)F)cc2)CC1 [IV-15]	4.49	4.53		
O=C(c1ccc(F)cc1F)C1(Oc2ccccc2I)CC1 [IV-8]	4.35	4.40		
Fc1ccc(C2(C3(Oc4ccccc4I)CC3)CO2)c(F)c1 (centres unmarked) [Example V-8]	4.58	4.66		
Fc1ccc(C2(C3(Oc4ccccc4F)CC3)CO2)c(F)c1 (centres unmarked) [Example V-4]	3.99^[a]			

SMILES	LogP [1]	LogP [2]	chromatographic logP [1]	chromatographic logP [2]
O=C(c1ccc(F)cc1F)C1(Oc2ccc(Cl)cc2F)CC1 [IV-3]	4.23	4.24		
COC(Cn1cncn1)(c1ccc(F)cc1F)C1(Oc2ccc(Cl)cc2)CC1 (racemic) [Example I-36]	3.81^[a]			
OC(Cn1cncn1)(c1ccc(F)cc1F)C1(Oc2c(Cl)cccc2Cl)CC1 (racemic) [Example I-19]	3.76^[a]			
COC(Cn1cncn1)(c1ccc(F)cc1F)C1(Oc2c(F)cccc2F)CC1 (racemic) [Example I-21]	3.48^[a]			
CC(C)COC(Cn1cncn1)(c1ccc(F)cc1F)C1(Oc2ccc(Cl)cc2)CC1 (racemic) [Example I-37]	5.11^[a]			
O=C(c1ccc(Cl)cc1F)C1(Oc2ccc(Cl)cc2F)CC1 [IV-22]	4.72^[a]			
Fc1ccc(C2(C3(Oc4ccc(F)c(F)c4)CC3)CO2)c(F)c1 (racemic) [Example V-27]	4.36^[a]			
OC(Cn1cncn1)(c1ccc(F)cc1F)C1(Oc2c(F)cccc2Br)CC1 (racemic) [Example I-24]	3.51^[a]			
Fc1ccc(C2(C3(Oc4ccc(I)cc4)CC3)CO2)c(F)c1 (centres unmarked) [Example V-10]	4.87	4.95		
O=C(c1ccc(F)cc1F)C1(Oc2c(F)cccc2F)CC1 [IV-17]	3.87^[a]			
O=C(c1ccc(F)cc1F)C1(Oc2ccc(Cl)c(F)c2)CC1 [IV-25]	4.41^[a]			
O=C(c1ccc(F)cc1F)C1(Oc2ccc(Cl)cc2)CC1 [IV-2]	4.22^[a]			
Fc1ccc(C2(C3(Oc4ccc(Br)c(F)c4)CC3)CO2)c(F)c1 (racemic) [Example V-24]	4.89^[a]			
O=C(c1ccc(F)cc1F)C1(Oc2ccc(SC(F)(F)F)cc2)CC1 [IV-16]	4.86	4.92		
Fc1ccc(C2(C3(Oc4cccc(Cl)c4F)CC3)CO2)c(F)c1 (racemic) [Example V-26]	4.44^[a]			
O=C(c1ccc(F)cc1F)C1(Oc2c(F)cccc2Cl)CC1 [IV-19]	4.26^[a]			
OC(Cn1cncn1)(c1ccc(F)cc1F)C1(Oc2c(F)cccc2Cl)CC1 (racemic) [Example I-22]	3.39^[a]			
O=C(c1ccc(Cl)cc1F)C1(Oc2ccc(Cl)cc2)CC1 [IV-21]	4.75^[a]			
O=C(c1ccc(F)cc1F)C1(Oc2ccc(I)cc2)CC1 [IV-10]	4.54	4.57		
Cc1cc(I)ccc1OC1(C(O)(Cn2cncn2)c2ccc(F)cc2F)CC1 (racemic) [Example I-12]	4.25^[a];	4.30^[b]		
OC(Cn1cncn1)(c1ccc(F)cc1F)C1(Oc2ccccc2F)CC1 (racemic) [Example I-03]	3.04^[a]			
OC(Cn1cncn1)(c1ccc(F)cc1F)C1(Oc2ccccc2Br)CC1 (racemic) [Example I-05]	3.44^[a];	3.43^[b]		
COC(Cn1cncn1)(c1ccc(F)cc1F)C1(Oc2c(F)cccc2Br)CC1 (racemic) [Example I-25]	3.83^[a]			
OC(Cn1cncn1)(c1ccc(Cl)cc1F)C1(Oc2ccc(Cl)cc2F)CC1 (racemic) [Example I-29]	3.89^[a]			

SMILES	LogP [1]	LogP [2]	chromatographic logP [1]	chromatographic logP [2]
OC(Cn1cncn1)(c1ccc(F)cc1F)C1(Oc2ccc(Cl)c(F)c2)CC1 (racemic) [Example I-40]	3.63^[a]			
CC(=O)OC(Cn1cncn1)(c1ccc(F)cc1F)C1(Oc2ccc(Cl)cc2)CC1 (racemic) [Example I-17]	3.47^[a];	3.47^[b]		
Cc1cc(I)ccc1OC1(C2(c3ccc(F)cc3F)CO2)CC1 (centres unmarked) [Example V-12]		5.40 and 5.48		
O=C(c1ccc(F)cc1F)C1(Oc2c(Cl)cccc2Cl)CC1 [IV-18]	4.59^[a]			
COC(Cn1cncn1)(c1ccc(F)cc1F)C1(Oc2c(Cl)cccc2Cl)CC1 (racemic) [Example I-20]	4.06^[a]			
OC(Cn1cncn1)(c1ccc(F)cc1F)C1(Oc2ccc(I)cc2)CC1 (racemic) [Example I-08]	3.78^[a];	3.80^[b]		
O=C(c1ccc(F)cc1F)C1(Oc2ccc(OC(F)F)cc2)CC1 [IV-27]	3.94^[a]			
OC(Cn1cncn1)(c1ccc(F)cc1F)C1(Oc2ccc(Br)cc2)CC1 (racemic) [Example I-07]	3.59^[a];	3.59^[b]		
Fc1ccc(C2(C3(Oc4ccc(OC(F)(F)F)cc4)CC3)CO2)c(F)c1 (centres unmarked) [Example V-15]	4.70	4.86		
Fc1ccc(C2(C3(Oc4ccc(SC(F)(F)F)cc4)CC3)CO2)c(F)c1 (centres unmarked) [Example V-16]	5.23	5.24		
O=C(c1ccc(F)cc1F)C1(Oc2ccc(F)cc2Cl)CC1 [IV-4]	4.21^[a]; 4.21^[b]	4.21^[a]; 4.21^[b]		
O=C(c1ccc(F)cc1F)C1(Oc2ccc(Br)cc2)CC1 [IV-1, [1-(4-bromophenoxy)cyclopropyl](2,4-difluorophenyl)methanone]			4.32	
O=C(c1ccc(F)cc1F)C1(Oc2cccc(Cl)c2F)CC1 [IV-28]	4.21^[a]			
OC(Cn1cncn1)(c1ccc(F)cc1F)C1(Oc2ccccc2I)CC1 (racemic) [Example I-04]	3.64^[a];	3.64^[b]		
CCOC(Cn1cncn1)(c1ccc(F)cc1F)C1(Oc2ccc(Cl)cc2)CC1 (racemic) [Example I-30]	4.32^[a]			
OC(Cn1cncn1)(c1ccc(F)cc1F)C1(Oc2ccc(SC(F)(F)F)cc2)CC1 (racemic) [Example I-15]	4.09^[a];	4.13^[b]		
OC(Cn1cncn1)(c1ccc(F)cc1F)C1(Oc2ccc(Cl)cc2F)CC1 (racemic) [Example I-01]	3.52^[a];	3.50^[b]		
COC(Cn1cncn1)(c1ccc(Cl)cc1F)C1(Oc2ccc(Cl)cc2)CC1 (racemic) [Example I-28]	4.29^[a]			
O=C(c1ccc(F)cc1F)C1(Oc2ccc(C(F)(F)F)cc2)CC1 [IV-23]	4.44^[a]			
Cc1cc(Br)ccc1OC1(C2(c3ccc(F)cc3F)CO2)CC1 (centres unmarked) [Example V-14]	5.25^[a]; 5.25^[b]	5.25^[a]; 5.25^[b]		
O=C(c1ccc(F)cc1F)C1(Oc2cccc(Br)c2)CC1 [IV-7]	4.32	4.36		
OC(Cn1cncn1)(c1ccc(F)cc1F)C1(Oc2ccc(C(F)(F)F)cc2)CC1 (racemic) [Example I-38]	3.70^[a]			
Cc1cc(I)ccc1OC1(C(=O)c2ccc(F)cc2F)CC1 [IV-12]	5.06	5.08		
